Experimental findings from US9290507B2, “B-RAF kinase inhibitors” (Boehringer Ingelheim International GmbH, priority 2010, dated 2016) are described below.

In the assay the target is B-Raf (V600E)-kinase (Homo sapiens (Human), UniProt P15056, V600E). The assay is described as follows: Kinase test B-Raf (V600E). The format is biochemical. As to conditions: 1 h preincubation, 250 μM ATP. As for the experimental part: In a dilution series 10 μL/well of test substance solution are placed in a multiwell plate. The dilution series is selected so that generally a range of concentrations of 2 μM to 0.119 nM or 0.017 nM is covered. If necessary the initial concentration of 2 μM is changed to 50 μM, 10 μM or 0.4 μM or 0.2857 μM and further dilution is carried out accordingly. The final concentration of DMSO is 5%. 10 μL/well of the B-Raf (V600E)-kinase solution are pipetted in (containing 0.5 ng B-Raf (V600E)-kinase (e.g. from Upstate) in 20 mM Tris-HCl pH 7.5, 0.1 mM EDTA, 0.1 mM EGTA, 0.286 mM sodium orthovanadate, 10% glycerol, 1 mg/mL bovine serum albumin, 1 mM dithiothreitol) and the mixture is incubated for 1 h at RT under with shaking. The kinase reaction is started by the addition of 20 μL/well ATP solution [final concentration: 250 μM ATP, 30 mM Tris-HCl pH 7.5, 0.02% Brij, 0.2 mM sodium orthovanadate, 10 mM magnesium acetate, 0.1 mM EGTA, phosphatase cocktail (Sigma, #P2850, dilution recommended by the manufacturer)] and 10 μL/well MEK1 solution [containing 50 ng biotinylated MEK1 (prepared from purified MEK1 according to standard procedure, e.g. with EZ-Link Sulpho-NHS-LC-Biotin reagent, Pierce, #21335)] and carried out for 60 min at RT with constant shaking. The reaction is stopped by the addition of 12 μL/well of a 100 mM EDTA solution and incubation is continued for a further 5 min. 55 μL/well of the reaction solution are transferred into a streptavidin-coated plate (e.g. Streptawell HighBond, Roche, #11989685001) and shaken gently for 1 h at RT, in order to bind biotinylated MEK1 to the plate. After elimination of the liquid the plate is washed five times with 200 μL/well of 1×PBS and 100 μL/well solution of primary antibody plus europium-labelled secondary antibody [Anti Phospho-MEK (Ser217/221), Cell Signaling, #9121 and Eu-N1 labelled goat-anti-rabbit antibody, Perkin Elmer, #AD0105] is added, the primary antibody is diluted 1:2000 and the secondary antibody is diluted to 0.4-0.5 μg/mL in Delfia Assay Buffer (Perkin Elmer, #1244-111). After 1 h shaking at RT the solution is poured away and washed five times with 200 μL/well Delfia Wash Buffer (Perkin Elmer, #4010-0010/#1244-114). After the addition of 200 μL/well Enhancement Solution (Perkin Elmer, #4001-0010/#1244-105) the mixture is shaken for 10 min at RT and then measured in a Wallac Victor using the program “Delfia Time Resolved Fluorescence (Europium)”. IC50 values are obtained from these dosage-activity curves using a software program (GraphPadPrizm).
B-Raf (V600E)-kinase, sequence (P15056 whole entry V600E): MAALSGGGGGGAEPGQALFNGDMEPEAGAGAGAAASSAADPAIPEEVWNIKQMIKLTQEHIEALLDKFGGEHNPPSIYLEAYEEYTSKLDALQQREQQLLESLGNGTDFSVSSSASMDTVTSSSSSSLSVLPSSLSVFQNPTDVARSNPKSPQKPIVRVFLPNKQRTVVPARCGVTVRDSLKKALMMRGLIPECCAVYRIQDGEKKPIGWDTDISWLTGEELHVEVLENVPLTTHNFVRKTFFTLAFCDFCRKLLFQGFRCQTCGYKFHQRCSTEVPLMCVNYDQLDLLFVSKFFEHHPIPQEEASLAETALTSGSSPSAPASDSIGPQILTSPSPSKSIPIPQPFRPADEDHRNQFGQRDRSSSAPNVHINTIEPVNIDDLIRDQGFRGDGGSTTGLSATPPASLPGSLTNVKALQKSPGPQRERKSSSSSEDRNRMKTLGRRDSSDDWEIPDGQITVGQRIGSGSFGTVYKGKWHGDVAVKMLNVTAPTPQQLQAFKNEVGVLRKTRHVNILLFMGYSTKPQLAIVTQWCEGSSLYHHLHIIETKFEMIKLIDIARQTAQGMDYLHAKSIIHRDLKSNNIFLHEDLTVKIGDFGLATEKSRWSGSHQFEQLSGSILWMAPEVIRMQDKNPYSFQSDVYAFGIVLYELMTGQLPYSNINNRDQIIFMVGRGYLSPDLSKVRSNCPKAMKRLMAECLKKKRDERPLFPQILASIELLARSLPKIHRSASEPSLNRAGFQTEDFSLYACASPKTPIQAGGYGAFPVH

The term IC50 denotes the concentration at which inhibition is half-maximal. A higher IC50 goes with weaker potency.

`Cc1ccc(C(=O)Nc2cc(C(C)(C)C)on2)cc1-n1cc(-c2cncc(N3CCC(N4CCN(C)CC4)CC3)c2)nn1` [I-90] came in with an IC50 of 10 nM. In other words, the double-digit nanomolar range.

For `Cc1ccc(C(=O)Nc2cc(C(C)(C)C)on2)cc1-n1cc(-c2cncc(N3CCC(N4CCN(C)CC4)C3)c2)nn1` (stereo not shown) [I-89], the 50% inhibitory concentration (IC50) was 6 nM. Compared with the last compound, the IC50 is about 1.7-fold lower.

`Cc1ccc(C(=O)Nc2cc(C(C)(C)C)on2)cc1-n1cc(-c2cncc(NCCN(C)C)c2)nn1` [I-46] gave a 50% inhibitory concentration (IC50) of 7 nM.

In the case of `Cc1ccc(C(=O)Nc2cc(C(F)(F)F)ccn2)cc1-n1cc(-c2cncc(N(C)CCN(C)C)c2)nn1` [I-86], half-maximal inhibition (IC50) required 10 nM.

`Cc1ccc(C(=O)Nc2cc(C(F)(F)F)ccn2)cc1-n1cc(-c2cncc(N(C)C3CCN(C)C3)c2)nn1` (stereo not shown) [I-78]: the half-maximal inhibitory concentration (IC50) amounted to 4 nM.

Consider `Cc1ccc(NC(=O)c2cc(C(C)(C)C)oc2C)cc1-n1cc(-c2cncc(N3CCOCC3)c2)nn1` [II-12], for which half-maximal inhibition (IC50) required 15 nM.

Compound `Cc1ccc(C(=O)Nc2cc(C(F)(F)F)ccn2)cc1-n1cc(-c2cncc(N3CCCCC3)c2)nn1` [I-64] had an IC50 of 69 nM.

Compound `Cc1ccc(C(=O)Nc2cc(C(F)(F)F)ccn2)cc1-n1cc(-c2cncc(N(C)C3CCN(C)CC3)c2)nn1` [I-74] came in with a concentration for half-maximal inhibition (IC50) of 12 nM.

Take `CCOCCN1CCN(c2cncc(-c3cn(-c4cc(NC(=O)c5ccc(C(C)(C)C)o5)ccc4C)nn3)c2)CC1` [II-22]: the IC50 turned out to be 7 nM. This IC50 lies about 1.7-fold lower than the previous one.

Take `CCN1CCN(c2cncc(-c3cn(-c4cc(NC(=O)c5ccc(C(C)(C)C)s5)ccc4C)nn3)c2)CC1` [II-27]: the IC50 amounted to 8 nM.

For `Cc1ccc(C(=O)Nc2cc(C(C)(C)C)on2)cc1-n1cc(-c2cncc(N3CCOCC3)c2)nn1` [I-47], the midpoint of inhibition, the IC50, lay at 10 nM. This IC50 and that of the compound before are within 1.5-fold of each other.

The compound `Cc1ccc(NC(=O)c2ccc(C(C)(C)C)o2)cc1-n1cc(-c2cncc(N3CCN(C(C)(C)C)CC3)c2)nn1` [II-3] gave a half-maximal inhibitory concentration (IC50) of 3 nM.

For the compound `Cc1ccc(NC(=O)c2ccc(C(C)(C)C)o2)cc1-n1cc(-c2cncc(N3CCNCC3)c2)nn1` [II-21], half-maximal inhibition (IC50) was put at 1 nM.

`Cc1ccc(C(=O)Nc2cc(C(F)(F)F)ccn2)cc1-n1cc(-c2cncc(N3C[C@@H]4C[C@H]3CN4C)c2)nn1` [I-82] came in with a half-maximal inhibitory concentration (IC50) of 6 nM.

Consider `Cc1ccc(NC(=O)c2ccc(C(C)(C)C)o2)cc1-n1cc(-c2cncc(N3CCOCC3)c2)nn1` [II-13], for which 9 nM corresponded to half-maximal inhibition (IC50).

As for `Cc1ccc(C(=O)Nc2cc(C(C)(C)C)on2)cc1-n1cc(-c2cncc(N3CCC3)c2)nn1` [I-19], the IC50 was 11 nM. This IC50 and that of the compound before are within 1.5-fold of each other.

Turning to `CCN1CCC2(CCN(c3cncc(-c4cn(-c5cc(C(=O)Nc6cc(C(C)(C)C)on6)ccc5C)nn4)c3)C2)C1` (stereo not shown) [I-7], it took 9 nM to reach half-maximal inhibition (IC50).

`Cc1ccc(C(=O)Nc2cc(C(C)(C)C)on2)cc1-n1cc(-c2cncc(N(C)C3CCOC3)c2)nn1` (stereo not shown) [I-10] yielded an IC50 of 8 nM.

`Cc1ccc(C(=O)Nc2cc(C(C)(C)C)ccn2)cc1-n1cc(-c2cncc(N3CCN(C)CC3)c2)nn1` [I-2]: the IC50 stood at 18 nM.

`Cc1ccc(C(=O)Nc2cc(C(C)(C)C)nn2C)cc1-n1cc(-c2cncc(N3CCOCC3)c2)nn1` [I-24] gave an IC50 of 19 nM.

`CCN1CCN(c2cncc(-c3cn(-c4cc(NC(=O)c5cc(C)n(C(C)(C)C)n5)ccc4C)nn3)c2)CC1` [II-35] had an IC50 of 10 nM.

As for `Cc1ccc(C(=O)Nc2cc(C(C)(C)C)on2)cc1-n1cc(-c2cncc(NC3CC3)c2)nn1` [I-28], the IC50 turned out to be 10 nM.
